# In patent publication US8987332B2, “Methods of treating inflammatory conditions” (The Regents of the University of California, priority 2009, dated 2015):
# Tests used:
# [1] = tested on: RAW 264.7 cells; assay: ERK1/2 phosphorylation in RAW 264.7 cells; type: cell-based, mouse; conditions: 100 μM, 5 min
# Procedure: FIG. 9, related to FIGS. 2 and 3. DHA-stimulated GPR120 inhibits TNF-α, TLR2 and TLR3-induced inflammation via a β-arrestin2 dependent mechanism. (A) ERK1/2 phosphorylation stimulated by GPR120 activation in RAW 264.7 cells transfected with scrambled or GPR120 siRNA. Cells were treated with 100 μM of DHA, α-linolenic acid or palmitic acid for 5 min. […] Data are expressed as the mean±SEM of three independent experiments. *, p<0.05 versus scrambled siRNA transfected cells. (B) Differentiated 3T3-L1 adipocytes were transfected with scrambled or GPR120 siRNA (GPR120 KD) and then 48 hr after siRNA transfection, cells were treated with 100 μM of DHA or GW9508 for 1 hr prior to TNF-α (10 ng/ml) treatment for 7 min prior to harvesting and then subjected to western blotting with the indicated antibodies. (C) RAW 264.7 cells, transfected with scrambled or GPR120 siRNA (GPR120 KD), were treated with 100 μM of DHA for 1 hr prior to 10 min TLR2 ligand, Pam3CSK4 (50 ng/ml), or TLR3 ligand, poly(I:C) (1 μg/ml), treatment and then subjected to western blotting. (D) To characterize the interaction site between β-arrestin2 and GPR120 or TAB1, HA-tagged GPR120 and FLAG-tagged serial C-terminal deletion mutants of β-arrestin2 (full, 1-300, 1-253, 1-176, and 1-163) or an N-terminal deletion mutant (80-410) were cotransfected in 293 cells. For immunoprecipitation of FLAG-βarr2 and HA-GPR120, cells were treated with DHA for 30 min, while DHA was used for 1 hr to detect endogenous TAB1 and FLAG-βarr2 interactions.
# (§1) Proteins from tissues or cell lysates were extracted with radioimmune precipitation buffer in the presence of phosphatase inhibitors and protease inhibitors (Roche Applied Science). […] of proteins/lane were separated on a 10% polyacrylamide, precast SDS gel (Bio-Rad) followed by transfer on polyvinylidene difluoride membrane (Immobilon, Millipore), and western blotting was performed as described (Nguyen et al., 2005) with indicated antibodies. […]
# [2] = tested on: RAW 264.7 cells; assay: LPS-induced inflammatory signaling and cytokine secretion in RAW 264.7 cells; type: cell-based, mouse; conditions: for LPS-induced phosphorylation of JNK and IKKβ, IκB degradation, cytokine secretion and inflammatory gene expression level: pretreated 1 hr
# Description: FIG. 1. Expression level of GPR120 and GPR120-mediated anti-inflammatory response in RAW 264.7 cells. (A) The mRNA expression pattern of various lipid sensing GPCRs is shown in adipose tissue, (B) CD11c+ bone marrow-derived dendritic cells (BMDCs), bone marrow-derived macrophages (BMDMs), IPMacs, 3T3-L1 preadipocytes, differentiated 3T3-L1 adipocytes, RAW 264.7 cells and L6 myocytes. Ribosomal protein S3 (RPS3) was used as internal control. (C) Expression of GPR120 in SVF, adipocytes and hepatic Kupffer cells from chow (NC)- or HFD-fed mice was examined by q-PCR. Data are expressed as the mean±SEM of at least three independent experiments in triplicate. *, p<0.05 versus NC. (D) RAW 264.7 cells, transfected with scrambled (Scr) or GPR120 #2 siRNA (GPR120 KD), were treated with 100 μM of GW9508 for 1 hr prior to LPS (100 ng/ml) treatment for 10 min and then subjected to western blotting. […] (E) Cytokine secretion level was measured in RAW 264.7 cells by ELISA. Data are expressed as the mean±SEM of three independent experiments. *, p<0.05 versus LPS treatment in scrambled siRNA transfected cells. See also FIGS. 8 and 9.
# Proteins from tissues or cell lysates were extracted with radioimmune precipitation buffer in the presence of phosphatase inhibitors and protease inhibitors (Roche Applied Science). […] of proteins/lane were separated on a 10% polyacrylamide, precast SDS gel (Bio-Rad) followed by transfer on polyvinylidene difluoride membrane (Immobilon, Millipore), and western blotting was performed as described (Nguyen et al., 2005) with indicated antibodies. For immunoprecipitations, lysates were incubated with 1 μg of anti-β-arrestin2, TAK1 antibody (Cell signaling), or GFP antibody (Santa Cruz Biotechnology) overnight at 4° C. and immune complexes precipitated with Protein A/G-conjugated beads (Invitrogen). Beads were washed with PBS and resuspended in sample buffer. Lysates and immune complexes were separated by SDS-PAGE, subjected to western blotting.
# TNF-α and IL-6 were directly quantified from RAW 264.7 cells with or without GPR120 knockdown, or IPMacs culture medium. Cells were treated with 100 μM GW9508 or DHA for 1 hr prior to treat 100 ng/ml LPS for 6 hr and then collect medium from the cells and subjected to ELISA according to the manufacturer's instructions (BIOSOURCE). For GLP-1 measurement, mouse blood was collected 1 hr after indicated diet feeding. Adequate inhibitors (protease inhibitors and Diprotin A as DPP IV inhibitor) were used while blood was collecting and then subjected to ELISA to the manufacturer's instructions (ALPCO, Salem, N.H.).
# [3] = tested on: 3T3-L1 adipocytes; assay: GLUT4 translocation and 2-deoxyglucose uptake in 3T3-L1 adipocytes; type: cell-based; conditions: for glucose transport: pretreated 30 min
# Procedure: FIG. 4. GPR120 activation enhances GLUT4 translocation and glucose uptake. (A) 3T3-L1 adipocytes were transfected with a dually tagged HA-GLUT4-GFP construct. Total GLUT4 expression was determined by GFP fluorescence, and GLUT4 translocation to the cell surface after 100 ng/ml insulin or 100 μM DHA stimulation for 30 min was determined by indirect immunofluorescence of the HA-conjugated with Alexa 594 in fixed cells. Translocation following insulin stimulation was expressed as a percentage of the maximum response. Bar graph represents the mean±SEM data from four independent experiments. *, p<0.05 vs. vehicle treatment. (B) Glucose uptake was measured in WT and GPR120 KO mouse primary adipose tissue and in (C-F) 3T3-L1 adipocytes±siRNA with the indicated treatment. […] Data are expressed as mean±SEM of three independent experiments in triplicate. *, p<0.05 vs. basal activity. The indicated siRNA knockdown efficiency was validated by western blotting. See also FIG. 10.
# HA-GLUT4-eGFP expression vector were electroporated into day 8 post differentiated 3T3-L1 adipocytes for monitoring of GLUT4 translocation as previously described (Yoshizaki et al., 2007). For 2-DOG assay, 3T3-L1 adipocytes were pretreated for 30 min with the indicated drug; and stimulated with 3 ng/ml of insulin for 30 min at 37° C. L6 myocytes were pretreated for 30 min with 100 μM DHA and then stimulated with 100 ng/ml of insulin for 30 min. Glucose uptake was measured as previously described (Imamura et al., 1999).
# [4] = tested on: IPMacs from WT mice; assay: In vitro transwell chemotaxis assay, WT IPMacs; type: cell-based, mouse; conditions: pretreatment 3 hr before exposure to 3T3-L1 adipocyte conditioned media
# Procedure: (§2) It seemed possible that the reduction in ATM content in WT animals on the ω-3 FA diet reflected decreased chemotaxis of macrophages. To test this hypothesis, we measured the migratory capacity of IPMacs from WT and GPR120 KO mice using an in vitro transwell chemotaxis assay. […] Similar experiments were performed using the specific chemokine, monocyte chemotactic protein-1 (MCP-1) as a chemoattractant, rather than CM, and these experiments yielded identical results (FIG. 6D).
# In vitro chemotaxis assay was performed as previously described (Patsouris et al., 2009). Briefly, mature 3T3-L1 adipocytes, more than 99% of cells showing large lipids droplets (12 days after differentiation protocol initiation), were used for preparation of conditioned media. […] For the migration per se, 100,000 IPMacs from WT or GPR120 KO mice were used per condition. The IPMacs were placed in the upper chamber of an 8 μm polycarbonate filter (24-transwell format; Corning, Lowell, Mass.), whereas adipocyte conditioned medium or MCP-1 treatment was placed in the lower chamber. After 3 hr of migration, cells were fixed in formalin and stained with 4′,6-diamidino-2-phenylindole and observed.
# [5] = tested on: IPMacs from GPR120 KO mice; assay: In vitro transwell chemotaxis assay, GPR120 KO IPMacs; type: cell-based, mouse; conditions: pretreatment before exposure to conditioned media
# Procedure: as §2
# In vitro chemotaxis assay was performed as previously described (Patsouris et al., 2009). Briefly, mature 3T3-L1 adipocytes, more than 99% of cells showing large lipids droplets (12 days after differentiation protocol initiation), were used for preparation of conditioned media. Treatment with the 100 μM DHA for 6 hr was performed in serum-free DMEM cultured IPMacs. For the migration per se, 100,000 IPMacs from WT or GPR120 KO mice were used per condition. The IPMacs were placed in the upper chamber of an 8 μm polycarbonate filter (24-transwell format; Corning, Lowell, Mass.), whereas adipocyte conditioned medium or MCP-1 treatment was placed in the lower chamber. After 3 hr of migration, cells were fixed in formalin and stained with 4′,6-diamidino-2-phenylindole and observed.
# [6] = tested on: L6 myocytes; assay: 2-deoxyglucose uptake in L6 myocytes; type: cell-based; conditions: 100 μM, compared to vehicle treated cells
# Procedure: FIG. 11, related to FIG. 5. Hyperinsulinemic/euglycemic clamp studies in bone marrow transplanted animals and muscle expression of GPR120. For bone marrow transplantation studies, WT or GPR120 KO mouse bone marrow (BM) was injected into irradiated WT C57B1/6 animals after 8 weeks for BM reconstitution, GPR120 was >90% reduced in circulating monocytes. Animals were then kept on either chow or switched to 60% HFD for weeks (±supplemention with ω-3 FAs for 5 weeks). (A) BMT GPR120 KO animals on chow are insulin resistant compared to WT controls. This effect is mediated by decreased GIR and a greater suppression of HGP in WT animals compared to KOs (n=5 for WT and n=6 per KO group). (B) BMT GPR120 KO animals on HFD supplemented with […] FAs (+ω3) are insulin resistant compared to WT controls. This effect is shown by decreased GIR, decreased IS-GDR, and a greater suppression of HGP in WT animals compared to KOs. (C) GPR120 expression levels in various tissues. RPS3 was the internal control for normalization. GPR120 is not expressed in soleus, or EDL muscle. […] Data are expressed as mean±SEM. *, p<0.05 compared to WT in (A) and (B).
# HA-GLUT4-eGFP expression vector were electroporated into day 8 post differentiated 3T3-L1 adipocytes for monitoring of GLUT4 translocation as previously described (Yoshizaki et al., 2007). […] Glucose uptake was measured as previously described (Imamura et al., 1999).
# [7] = tested on: 3T3-L1 adipocytes; assay: Akt and IRS-1 phosphorylation in 3T3-L1 adipocytes (western blotting); type: cell-based
# Procedure: FIG. 10, related to FIG. 4. DHA activates Akt phosphorylation in a GPR120-dependent manner. (A) Differentiated 3T3-L1 adipocytes were transfected with scrambled or GPR120 siRNA and then 48 hr after siRNA transfection, cells were treated with 100 μM of DHA 30 min prior to insulin (3 ng/ml) treatment for 7 min followed by western blotting with phosphorylated Akt (S473) antibody. […] Data are expressed as the mean±SEM of three independent experiments. *, p<0.05 versus basal. (B) Cells were treated with the PI3K inhibitor LY294002 (50 μM) for 30 min before DHA (100 μM) or insulin (3 ng/ml) treatment. (C) Phosphorylation of IRS-1 was detected after DHA or insulin treatment of 3T3-L1 adipocytes. (D) Schematic diagram of GPR120-mediated Akt activation in 3T3-L1 adipocytes.
# as §1
# [8] = tested on: WT mice on 60% HFD; assay: Hyperinsulinemic/euglycemic clamp in HFD-fed WT mice; type: in vivo, mouse; conditions: gavage 300 μl EPAX 1050TG, clamp 4 hr after gavage, vs saline
# [9] = 100 μM 1 hr prior to LPS 100 ng/ml 10 min
smiles,measurement,setting,value
CCCCCCCCCCCCCCCC(=O)O [palmitic acid],ERK phosphorylation,[1],activated
O=C(O)CCc1ccc(NCc2cccc(Oc3ccccc3)c2)cc1 [GW9508],IκB degradation,[2]; [9],prevented
same,LPS stimulated phosphorylation of IKKβ and JNK,[2]; [9],inhibited
same,TNF-α and IL-6 secretion,"[2]; 100 μM 1 hr prior to LPS 100 ng/ml 6 hr, ELISA",inhibited
same,"LPS-induced phosphorylation of JNK and IKKβ, IκB degradation, cytokine secretion and inflammatory gene expression level",[2]; RAW 264.7 cells,strongly inhibited
same,glucose transport,[3],stimulatory effect
CC/C=C\C/C=C\C/C=C\C/C=C\C/C=C\C/C=C\CCC(=O)O [DHA],LPS-induced TAK1 and MKK4 phosphorylation,[2]; RAW 264.7 cells,abrogated
same,"LPS-induced phosphorylation of JNK and IKKβ, IκB degradation, cytokine secretion and inflammatory gene expression level",[2]; RAW 264.7 cells,strongly inhibited
same,ERK phosphorylation,[1],activated
same,inhibition of chemotactic capacity,[4],80%
same,effect on chemotactic capacity,[5],no significant effect
same,GLUT4 translocation to the cell surface,"[3]; 100 μM, 30 min",increased
same,effect on glucose uptake relative to the effect of insulin,[3]; 3T3-L1 adipocytes,30-50%
same,glucose transport,[3],increase
same,glucose uptake,[6],not altered
same,IRS-1 phosphorylation,[7],did not stimulate
same,phosphorylation of Akt,[7]; 100 μM,modest effect
same,whole body glucose homeostasis after acute treatment,[8],no effect
CC/C=C\C/C=C\C/C=C\CCCCCCCC(=O)O [α-linolenic acid],ERK phosphorylation,[1],activated
